Experimental data reported in ChEMBL document CHEMBL1201862, “PubChem BioAssay data set” (2004).
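In this assay, cells in 96-well plates receive the compound at five concentrations for 48 hours. Endpoints are linearly interpolated between the surrounding concentrations. The concentration for 50% growth inhibition is given as GI50.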 Active and inactive are the calls of the source. Rule as the data show it: active = GI50 up to about 1.1 µM and inactive = higher.

How the values were obtained:
Assay in all cases: DTP human tumour cell line panel, 48 h
MDA-N = tested on: MDA-N
SR = tested on: SR
PC-3 = tested on: PC-3
SK-MEL-5 = tested on: SK-MEL-5
M14 = tested on: M14
UACC-62 = tested on: UACC-62
SN12C = tested on: SN12C
SNB-75 = tested on: SNB-75
OVCAR-4 = tested on: OVCAR-4
OVCAR-8 = tested on: OVCAR-8
SF-295 = tested on: SF-295
EKVX = tested on: EKVX
IGROV-1 = tested on: IGROV-1
U-251 = tested on: U-251
OVCAR-3 = tested on: OVCAR-3
MDA-MB-435 = tested on: MDA-MB-435
HCT-116 = tested on: HCT-116
HOP-62 = tested on: HOP-62
SF-268 = tested on: SF-268
SF-539 = tested on: SF-539
RPMI-8226 = tested on: RPMI-8226
SW-620 = tested on: SW-620
K562 = tested on: K562
HT-29 = tested on: HT-29
NCI-H522 = tested on: NCI-H522
NCI-H460 = tested on: NCI-H460
HOP-92 = tested on: HOP-92
SK-MEL-2 = tested on: SK-MEL-2
BT-549 = tested on: BT-549
Hs-578T = tested on: Hs-578T
MCF7 = tested on: MCF7
SNB-19 = tested on: SNB-19
UO-31 = tested on: UO-31
ACHN = tested on: ACHN
MDA-MB-231 = tested on: MDA-MB-231
T47D = tested on: T47D
OVCAR-5 = tested on: OVCAR-5
SK-MEL-28 = tested on: SK-MEL-28
NCI/ADR-RES = tested on: NCI/ADR-RES
SK-OV-3 = tested on: SK-OV-3
KM12 = tested on: KM12
NCI-H226 = tested on: NCI-H226
TK-10 = tested on: TK-10
CAKI-1 = tested on: CAKI-1
A498 = tested on: A498
COLO 205 = tested on: COLO 205
HCC 2998 = tested on: HCC 2998
UACC-257 = tested on: UACC-257
A549 = tested on: A549
Malme-3M = tested on: Malme-3M
NCI-H23 = tested on: NCI-H23
DU-145 = tested on: DU-145
HCT-15 = tested on: HCT-15
786-0 = tested on: 786-0
RXF 393 = tested on: RXF 393
HL-60 = tested on: HL-60
LOX IMVI = tested on: LOX IMVI
CCRF-CEM = tested on: CCRF-CEM
MOLT-4 = tested on: MOLT-4

Question: N=C(N)c1ccc(/N=N\c2c(O)ccc3c2[nH]c2ccccc23)cc1 was tested. Which GI50 (MDA-N) did it give?
Answer: 6.3 µM (inactive)

Question: What about the GI50 (SR) of the same molecule?
Answer: 2.54 µM (inactive)

Question: And the GI50 (PC-3)?
Answer: 9.73 µM (inactive)

Question: What about the GI50 (SK-MEL-5) of the same molecule?
Answer: 37.8 µM (inactive)

Question: What about the GI50 (M14) of the same molecule?
Answer: 36.1 µM (inactive)

Question: What about the GI50 (UACC-62) of the same molecule?
Answer: 54.2 µM (inactive)

Question: And the GI50 (SN12C)?
Answer: 16.4 µM (inactive)

Question: And the GI50 (SNB-75)?
Answer: 8.38 µM (inactive)

Question: And the GI50 (OVCAR-4)?
Answer: 6.14 µM (inactive)

Question: What about the GI50 (OVCAR-8) of the same molecule?
Answer: 2.46 µM (inactive)

Question: What about the GI50 (SF-295) of the same molecule?
Answer: > 51.5 µM (inactive)

Question: What about the GI50 (EKVX) of the same molecule?
Answer: > 59.6 µM (inactive)

Question: What about the GI50 (IGROV-1) of the same molecule?
Answer: 49.8 µM (inactive)

Question: And the GI50 (U-251)?
Answer: 1.95 µM (inactive)

Question: What about the GI50 (OVCAR-3) of the same molecule?
Answer: 2.1 µM (inactive)

Question: What about the GI50 (MDA-MB-435) of the same molecule?
Answer: 3.39 µM (inactive)

Question: And the GI50 (HCT-116)?
Answer: 3.31 µM (inactive)

Question: What about the GI50 (HOP-62) of the same molecule?
Answer: 13.6 µM (inactive)

Question: And the GI50 (SF-268)?
Answer: 19.5 µM (inactive)

Question: What about the GI50 (SF-539) of the same molecule?
Answer: > 49.5 µM (inactive)

Question: What about the GI50 (RPMI-8226) of the same molecule?
Answer: 2.19 µM (inactive)

Question: What about the GI50 (SW-620) of the same molecule?
Answer: 2.32 µM (inactive)

Question: And the GI50 (K562)?
Answer: 1.63 µM (inactive)

Question: What about the GI50 (HT-29) of the same molecule?
Answer: 19.6 µM (inactive)

Question: And the GI50 (NCI-H522)?
Answer: > 53.2 µM (inactive)

Question: What about the GI50 (NCI-H460) of the same molecule?
Answer: 2.76 µM (inactive)

Question: And the GI50 (HOP-92)?
Answer: 98.6 µM (inactive)

Question: And the GI50 (SK-MEL-2)?
Answer: 20.3 µM (inactive)

Question: And the GI50 (BT-549)?
Answer: 49.8 µM (inactive)

Question: And the GI50 (Hs-578T)?
Answer: 63.8 µM (inactive)

Question: What about the GI50 (MCF7) of the same molecule?
Answer: 1.75 µM (inactive)

Question: And the GI50 (SNB-19)?
Answer: 2.47 µM (inactive)

Question: And the GI50 (UO-31)?
Answer: 35.3 µM (inactive)

Question: What about the GI50 (ACHN) of the same molecule?
Answer: 41.6 µM (inactive)

Question: What about the GI50 (MDA-MB-231) of the same molecule?
Answer: 2.09 µM (inactive)

Question: And the GI50 (T47D)?
Answer: 2.43 µM (inactive)

Question: What about the GI50 (OVCAR-5) of the same molecule?
Answer: 41.5 µM (inactive)

Question: And the GI50 (SK-MEL-28)?
Answer: 18.8 µM (inactive)

Question: What about the GI50 (NCI/ADR-RES) of the same molecule?
Answer: 58.1 µM (inactive)

Question: And the GI50 (SK-OV-3)?
Answer: 25.2 µM (inactive)

Question: What about the GI50 (KM12) of the same molecule?
Answer: 1.85 µM (inactive)

Question: And the GI50 (NCI-H226)?
Answer: 40.5 µM (inactive)

Question: What about the GI50 (TK-10) of the same molecule?
Answer: 45.5 µM (inactive)

Question: What about the GI50 (CAKI-1) of the same molecule?
Answer: > 50.8 µM (inactive)

Question: And the GI50 (A498)?
Answer: 77.3 µM (inactive)

Question: And the GI50 (COLO 205)?
Answer: 21.7 µM (inactive)

Question: What about the GI50 (HCC 2998) of the same molecule?
Answer: 1.76 µM (inactive)

Question: What about the GI50 (UACC-257) of the same molecule?
Answer: 45.4 µM (inactive)

Question: And the GI50 (A549)?
Answer: 2.34 µM (inactive)

Question: What about the GI50 (Malme-3M) of the same molecule?
Answer: > 47.3 µM (inactive)

Question: And the GI50 (NCI-H23)?
Answer: 10.2 µM (inactive)

Question: What about the GI50 (DU-145) of the same molecule?
Answer: 34.6 µM (inactive)

Question: And the GI50 (HCT-15)?
Answer: 39.1 µM

Question: What about the GI50 (786-0) of the same molecule?
Answer: 1.69 µM (inactive)

Question: What about the GI50 (RXF 393) of the same molecule?
Answer: 53.1 µM (inactive)

Question: And the GI50 (HL-60)?
Answer: 1.15 µM (inactive)

Question: And the GI50 (LOX IMVI)?
Answer: 2.24 µM (inactive)

Question: What about the GI50 (CCRF-CEM) of the same molecule?
Answer: 0.25 µM (active)

Question: What about the GI50 (MOLT-4) of the same molecule?
Answer: 2.23 µM (inactive)

Question: What does the source list for COc1cc2oc(-c3ccc(O)cc3)c(OC3OC(C)C(O)C(O)C3O)c(=O)c2c(O)c1OC (configuration not stated)?
Answer: GI50 (MDA-N): > 100 µM (inactive); GI50 (SR): 27 µM (inactive); GI50 (PC-3): > 100 µM (inactive); GI50 (SK-MEL-5): 45.1 µM (inactive); GI50 (M14): > 100 µM (inactive); GI50 (UACC-62): 75.5 µM (inactive); GI50 (SN12C): > 100 µM (inactive); GI50 (SNB-75): > 100 µM (inactive); GI50 (OVCAR-4): 57.8 µM (inactive); GI50 (OVCAR-8): 91 µM (inactive); GI50 (SF-295): > 100 µM (inactive); GI50 (EKVX): > 100 µM (inactive); GI50 (IGROV-1): > 100 µM (inactive); GI50 (U-251): 89.5 µM (inactive); GI50 (OVCAR-3): > 100 µM (inactive); GI50 (MDA-MB-435): > 100 µM (inactive); GI50 (HCT-116): 80.4 µM (inactive); GI50 (HOP-62): > 100 µM (inactive); GI50 (SF-268): > 100 µM (inactive); GI50 (SF-539): > 100 µM (inactive); GI50 (RPMI-8226): 16.7 µM (inactive); GI50 (SW-620): 92.7 µM (inactive); GI50 (K562): 54.3 µM (inactive); GI50 (HT-29): > 100 µM (inactive); GI50 (NCI-H522): 37 µM (inactive); GI50 (NCI-H460): 45.8 µM (inactive); GI50 (HOP-92): > 100 µM (inactive); GI50 (SK-MEL-2): > 100 µM (inactive); GI50 (BT-549): 62.1 µM (inactive); GI50 (Hs-578T): > 100 µM (inactive); GI50 (MCF7): 55.7 µM (inactive); GI50 (SNB-19): > 100 µM (inactive); GI50 (ACHN): 90.8 µM (inactive); GI50 (MDA-MB-231): > 100 µM (inactive); GI50 (T47D): > 100 µM (inactive); GI50 (OVCAR-5): > 100 µM (inactive); GI50 (SK-MEL-28): > 100 µM (inactive); GI50 (NCI/ADR-RES): 75.5 µM (inactive); GI50 (SK-OV-3): > 100 µM (inactive); GI50 (KM12): > 100 µM (inactive); GI50 (NCI-H226): > 100 µM (inactive); GI50 (TK-10): > 100 µM (inactive); GI50 (CAKI-1): > 100 µM (inactive); GI50 (A498): > 100 µM (inactive); GI50 (COLO 205): > 100 µM (inactive); GI50 (HCC 2998): > 100 µM (inactive); GI50 (UACC-257): > 100 µM (inactive); GI50 (A549): 79.6 µM (inactive); GI50 (Malme-3M): 96.2 µM (inactive); GI50 (NCI-H23): 36.5 µM (inactive); GI50 (DU-145): 99.8 µM (inactive); GI50 (HCT-15): > 100 µM; GI50 (786-0): 51.2 µM (inactive); GI50 (RXF 393): > 100 µM (inactive); GI50 (HL-60): 32.9 µM (inactive); GI50 (LOX IMVI): 57.7 µM (inactive); GI50 (CCRF-CEM): 35.6 µM (inactive); GI50 (MOLT-4): 33 µM (inactive)
